Reference: patent publication US20240190886A1, “BRM Targeting Compounds and Associated Methods of Use” (Prelude Therapeutics Incorporated, priority 2022, published 2024)

What was measured:
SMARCA4 = molecular target: T1, SMARCA4 (Homo sapiens, UniProt P51532); test: SMARCA4 HiBiT degradation assay in HeLa cells; assay type: cell-based; conditions: 18 hours incubation, Nano-Glo HiBiT Lytic detection
T1 construct: SMARCA2-HiBiT knock-in Hela monoclonal cell (CS302366) and SMARCA4-HiBiT knock-in Hela monoclonal cell (CS3023226) were purchased from Promega; host or cells: HeLa SMARCA4-HiBiT knock-in monoclonal cells (heterozygous knock-in)
Description: (§1) Example A. SMARCA2 HiBiT and SMARCA4 HiBiT Degradation Assay
(§2) HiBiT peptide knock-in of SMARCA2 in LgBiT expressing HEK293T cells was performed by CRISPR-mediated tagging system as described Promega. The homozygous HiBiT knock-in on c-terminus SMARCA2 was confirmed by sanger sequence. SMARCA2-HiBiT knock-in Hela monoclonal cell (CS302366) and SMARCA4-HiBiT knock-in Hela monoclonal cell (CS3023226) were purchased from Promega. The heterozygous HiBiT-knock-in was confirmed by sanger sequence in both SMARCA2-HiBiT and SMARCA4-HiBiT monoclonal cells.
(§3) SMARCA2 HiBiT and SMARCA4 HiBiT degradation assay in HeLa cells
(§4) Dispense 10 ul aliquot of prepared Hela-SMARCA2-HiBiT or Hela-SMARCA4-HiBiT cells (1:1 ratio of cells:Trypan Blue (#1450013, Bio-Rad)) onto cell counting slide (#145-0011, Bio-Rad) and obtain cell density and cell viability using cell counter (TC20, Bio-Rad). Remove appropriate volume of resuspended cells from culture flask to accommodate 2500 cells/well @20 μL/well. Transfer Hela-HiBiT cells to 50 mL conical (#430290, Corning). Spin down at 1000 rpm for 5 min using tabletop centrifuge (SPINCHRON 15, Beckman). Discard supernatant and resuspend cell pellet in modified EMEM (#30-2003, ATCC) cell culture media containing 10% FBS (F2422-500ML, Sigma), and 1X Penicillin/Streptomycin (200 g/L) (30-002-CI, Corning) to a cell density of 125,000 cells/mL. Dispense 20 μLof resuspended Hela-HiBit cells per well in 384-well TC treated plate (#12-565-343, Thermo Scientific) using standard cassette (#50950372, Thermo Scientific) on Multidrop Combi (#5840310, Thermo Scientific) inside laminar flow cabinet.
(§5) Compounds were dissolved in DMSO to make 10 mM stock and 3-fold series dilutions were further conducted keeping the highest concentration 10 RM. Dispense test compounds onto plates using digital liquid dispenser (D300E, Tecan). Incubate plates in humidified tissue culture incubator @37° C. for 18 hours. Add 20 μL of prepared Nano-Glo® HiBiT Lytic detection buffer (N3050, Promega) to each well of 384-well plate using small tube cassette (#24073295, Thermo Scientific) on Multidrop Combi, incubate @ RT for 30-60 min. Read plates on microplate reader (Envision 2105, PerkinElmer) using 384 well Ultra-Sensitive luminescence mode. Raw data files and compound information reports are swept into centralized data lake and deconvoluted using automated scripts designed by TetraScience, Inc. Data analysis, curve-fitting and reporting done in Dotmatics Informatics Suite using Screening Ultra module.
(§6) In Table 1, A=DC50<0.1 RM; B=0.1 μM≤DC50<1 μM and C=DC50>1 μM. In Table 4, A=Dmax>75% and B=50%<Dmax<75% and C=Dmax<50%.

SMARCA2 = molecular target: T2, SMARCA2 (Homo sapiens, UniProt P51531); test: SMARCA2 HiBiT degradation assay in HeLa cells; assay type: cell-based; conditions: 18 hours incubation, Nano-Glo HiBiT Lytic detection
T2 construct: SMARCA2-HiBiT knock-in Hela monoclonal cell (CS302366) and SMARCA4-HiBiT knock-in Hela monoclonal cell (CS3023226) were purchased from Promega; host or cells: HeLa SMARCA2-HiBiT knock-in monoclonal cells (heterozygous knock-in)
Description: as §1, §2, §3, §4, §5, §6

T1 sequence (P51532 whole entry): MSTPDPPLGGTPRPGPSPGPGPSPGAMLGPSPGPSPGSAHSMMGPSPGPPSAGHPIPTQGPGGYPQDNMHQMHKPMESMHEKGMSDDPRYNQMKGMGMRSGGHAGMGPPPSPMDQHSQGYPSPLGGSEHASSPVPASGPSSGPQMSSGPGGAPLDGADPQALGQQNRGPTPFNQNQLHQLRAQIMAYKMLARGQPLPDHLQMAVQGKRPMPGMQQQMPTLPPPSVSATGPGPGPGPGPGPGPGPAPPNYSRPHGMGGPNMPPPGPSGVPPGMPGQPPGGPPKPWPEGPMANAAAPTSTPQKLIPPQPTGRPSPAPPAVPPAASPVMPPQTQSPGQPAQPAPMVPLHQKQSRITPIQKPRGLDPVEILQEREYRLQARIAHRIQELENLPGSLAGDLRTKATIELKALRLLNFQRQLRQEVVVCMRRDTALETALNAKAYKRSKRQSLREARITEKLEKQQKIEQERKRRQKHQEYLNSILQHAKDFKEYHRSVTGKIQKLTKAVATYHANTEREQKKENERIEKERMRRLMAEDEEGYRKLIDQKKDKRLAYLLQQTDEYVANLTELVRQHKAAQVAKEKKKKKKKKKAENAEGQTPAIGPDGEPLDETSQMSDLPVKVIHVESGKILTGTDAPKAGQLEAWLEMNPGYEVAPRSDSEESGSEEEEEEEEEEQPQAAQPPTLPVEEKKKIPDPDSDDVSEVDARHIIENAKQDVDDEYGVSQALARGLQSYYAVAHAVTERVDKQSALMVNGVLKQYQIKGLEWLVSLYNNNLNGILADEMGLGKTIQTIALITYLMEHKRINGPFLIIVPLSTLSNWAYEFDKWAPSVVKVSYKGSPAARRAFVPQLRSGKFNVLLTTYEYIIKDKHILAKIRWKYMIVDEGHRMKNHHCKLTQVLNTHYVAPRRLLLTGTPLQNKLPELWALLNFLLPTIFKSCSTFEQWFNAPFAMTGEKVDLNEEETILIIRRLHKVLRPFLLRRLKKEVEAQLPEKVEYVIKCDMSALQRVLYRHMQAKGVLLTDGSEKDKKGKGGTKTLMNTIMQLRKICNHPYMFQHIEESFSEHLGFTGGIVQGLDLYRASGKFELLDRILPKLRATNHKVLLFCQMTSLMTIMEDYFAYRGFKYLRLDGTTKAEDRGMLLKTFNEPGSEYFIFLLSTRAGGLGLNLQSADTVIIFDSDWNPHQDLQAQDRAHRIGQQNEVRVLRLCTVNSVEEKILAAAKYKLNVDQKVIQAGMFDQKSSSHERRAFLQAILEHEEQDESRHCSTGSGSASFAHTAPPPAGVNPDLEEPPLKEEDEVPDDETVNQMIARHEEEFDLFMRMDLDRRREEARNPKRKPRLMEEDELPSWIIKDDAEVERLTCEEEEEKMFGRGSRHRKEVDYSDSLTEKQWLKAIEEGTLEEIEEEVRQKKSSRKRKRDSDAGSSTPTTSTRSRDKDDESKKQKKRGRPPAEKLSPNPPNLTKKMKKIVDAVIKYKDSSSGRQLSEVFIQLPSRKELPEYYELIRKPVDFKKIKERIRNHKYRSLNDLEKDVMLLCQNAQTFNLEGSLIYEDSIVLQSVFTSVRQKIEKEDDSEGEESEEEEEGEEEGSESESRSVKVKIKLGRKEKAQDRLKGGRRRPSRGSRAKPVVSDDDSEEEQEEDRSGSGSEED
T2 sequence (P51531 whole entry): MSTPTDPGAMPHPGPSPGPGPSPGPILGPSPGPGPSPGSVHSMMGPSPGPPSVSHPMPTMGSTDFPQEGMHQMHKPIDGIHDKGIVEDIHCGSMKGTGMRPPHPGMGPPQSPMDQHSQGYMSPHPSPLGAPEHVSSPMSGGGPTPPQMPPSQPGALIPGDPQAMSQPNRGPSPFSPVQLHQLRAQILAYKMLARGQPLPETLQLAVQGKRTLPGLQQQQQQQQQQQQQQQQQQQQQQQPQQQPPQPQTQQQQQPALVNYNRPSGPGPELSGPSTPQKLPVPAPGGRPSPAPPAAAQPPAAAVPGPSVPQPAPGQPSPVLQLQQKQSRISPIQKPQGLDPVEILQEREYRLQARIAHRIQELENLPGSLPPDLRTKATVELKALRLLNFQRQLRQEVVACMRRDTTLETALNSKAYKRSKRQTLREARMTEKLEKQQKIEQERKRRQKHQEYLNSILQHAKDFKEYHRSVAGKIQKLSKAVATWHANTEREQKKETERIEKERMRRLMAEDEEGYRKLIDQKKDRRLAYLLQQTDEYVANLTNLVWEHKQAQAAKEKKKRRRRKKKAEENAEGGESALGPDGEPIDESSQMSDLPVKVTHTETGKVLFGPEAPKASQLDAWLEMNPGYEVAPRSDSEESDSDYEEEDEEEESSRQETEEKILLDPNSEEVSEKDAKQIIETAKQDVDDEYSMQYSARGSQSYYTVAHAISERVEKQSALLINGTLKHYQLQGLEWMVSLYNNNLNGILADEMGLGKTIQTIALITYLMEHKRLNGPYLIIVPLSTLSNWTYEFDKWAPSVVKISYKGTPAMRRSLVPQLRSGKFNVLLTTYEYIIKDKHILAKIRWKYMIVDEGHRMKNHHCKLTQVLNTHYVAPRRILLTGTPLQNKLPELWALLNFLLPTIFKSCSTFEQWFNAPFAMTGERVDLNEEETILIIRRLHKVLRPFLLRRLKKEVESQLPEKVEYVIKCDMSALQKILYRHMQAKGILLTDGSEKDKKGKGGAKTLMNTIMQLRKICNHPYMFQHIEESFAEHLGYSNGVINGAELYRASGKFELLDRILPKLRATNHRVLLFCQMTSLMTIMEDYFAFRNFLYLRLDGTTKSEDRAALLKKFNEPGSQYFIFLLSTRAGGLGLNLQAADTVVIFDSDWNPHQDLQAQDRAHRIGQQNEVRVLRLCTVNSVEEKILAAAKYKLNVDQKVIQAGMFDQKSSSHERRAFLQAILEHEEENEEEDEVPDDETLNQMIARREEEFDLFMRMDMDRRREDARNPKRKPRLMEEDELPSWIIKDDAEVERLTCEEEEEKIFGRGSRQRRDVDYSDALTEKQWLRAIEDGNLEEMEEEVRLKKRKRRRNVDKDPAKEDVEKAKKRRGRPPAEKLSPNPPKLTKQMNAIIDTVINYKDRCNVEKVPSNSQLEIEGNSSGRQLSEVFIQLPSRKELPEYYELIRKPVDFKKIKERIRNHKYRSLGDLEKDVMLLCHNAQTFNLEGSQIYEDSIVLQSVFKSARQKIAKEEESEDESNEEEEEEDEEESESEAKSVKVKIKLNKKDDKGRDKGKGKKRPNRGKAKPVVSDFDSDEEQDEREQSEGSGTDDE

SMILES	DC50 (SMARCA4) [nM]	Dmax (SMARCA4) [%]	DC50 (SMARCA2) [nM]	Dmax (SMARCA2) [%]
CC[C@@]12CNc3nnc(-c4ccccc4O)cc3N1C[C@H](Oc1ccc(CN3CCC(c4ccc(C5CCC(=O)NC5=O)cc4)CC3)cn1)C2 (stereo partly drawn) [Example 16, 3-(4-(1-((6-(((6aR,8R)-6a-ethyl-2-(2-hydroxyphenyl)-5,6,6a,7,8,9-hexahydro-pyrrolo[1′,2′:4,5]pyrazino[2,3-c]pyridazin-8-yl)oxy)pyridin-3-yl)methyl)piperidin-4-yl)phenyl)piperidine-2,6-dione]	< 100	> 75	< 100	> 75
CC[C@]12CNc3nnc(-c4ccccc4O)cc3N1C[C@H](Oc1ccc(CN3CCN(c4ccc(C(=O)NC5CCC(=O)NC5=O)cc4)CC3)cn1)C2 (stereo partly drawn) [Example 12, N-(2,6-dioxopiperidin-3-yl)-4-(4-((6-(((6aS,8R)-6a-ethyl-2-(2-hydroxyphenyl)-5,6,6a,7,8,9-hexahydropyrrolo[1′,2′:4,5]pyrazino[2,3-c]pyridazin-8-yl)oxy)pyridin-3-yl)methyl)piperazin-1-yl)benzamide]	100 to 1000	< 50	< 100	50 to 75
C[C@@H]1CN(CC2CCN(c3ccc4cn(C5CCC(=O)NC5=O)nc4c3)CC2)C[C@H](C)N1C(=O)N1CCN2c3cc(-c4ccccc4O)nnc3NC[C@H]2C1 (stereo partly drawn) [Example 4, 3-(6-(4-(((3S,5R)-4-((S)-2-(2-hydroxyphenyl)-6,6a,7,8,9,10-hexahydro-5H-pyrazino[1′,2′:4,5]pyrazino[2,3-c]pyridazine-8-carbonyl)-3,5-dimethylpiperazin-1-yl)methyl)piperidin-1-yl)-2H-indazol-2-yl)piperidine-2,6-dione]	< 100	50 to 75	< 100	50 to 75
C[C@@H]1CN(CC2CCN(c3ccc4c(=O)n(C5CCC(=O)NC5=O)ncc4c3)CC2)C[C@H](C)N1C(=O)N1CCN2c3cc(-c4ccccc4O)nnc3NC[C@H]2C1 (stereo partly drawn) [Example 3, 3-(6-(4-(((3R,5S)-4-((S)-2-(2-hydroxyphenyl)-6,6a,7,8,9,10-hexahydro-5H-pyrazino[1′,2′:4,5]pyrazino[2,3-c]pyridazine-8-carbonyl)-3,5-dimethylpiperazin-1-yl)methyl)piperidin-1-yl)-1-oxophthalazin-2(1H)-yl)piperidine-2,6-dione]	100 to 1000	< 50	< 100	50 to 75
C[C@@H]1CN(CC2CCN(c3ccc(C(=O)NC4CCC(=O)NC4=O)c(F)c3)CC2)C[C@H](C)N1C(=O)N1CCN2c3cc(-c4ccccc4O)nnc3NC[C@H]2C1 (stereo partly drawn) [Example 1, N-(2,6-dioxopiperidin-3-yl)-2-fluoro-4-(4-(((3R,5S)-4-((S)-2-(2-hydroxyphenyl)-6,6a,7,8,9,10-hexahydro-5H-pyrazino[1′,2′:4,5]pyrazino[2,3-c]pyridazine-8-carbonyl)-3,5-dimethylpiperazin-1-yl)methyl)piperidin-1-yl)benzamide]	> 1000		< 100	
C[C@@H]1CN(CC2CCN(c3ccc4cnn(C5CCC(=O)NC5=O)c4c3)CC2)C[C@H](C)N1C(=O)N1CCN2c3cc(-c4ccccc4O)nnc3NC[C@H]2C1 (stereo partly drawn) [Example 5, 3-(6-(4-(((3R,5S)-4-((S)-2-(2-hydroxyphenyl)-6,6a,7,8,9,10-hexahydro-5H-pyrazino[1′,2′:4,5]pyrazino[2,3-c]pyridazine-8-carbonyl)-3,5-dimethylpiperazin-1-yl)methyl)piperidin-1-yl)-1H-indazol-1-yl)piperidine-2,6-dione]	> 1000	< 50	100 to 1000	< 50
C[C@@H]1CN(CC2CCN(c3ccnc(C(=O)NC4CCC(=O)NC4=O)c3)CC2)C[C@H](C)N1C(=O)N1CCN2c3cc(-c4ccccc4O)nnc3NC[C@H]2C1 (stereo partly drawn) [Example 7, N-(2,6-dioxopiperidin-3-yl)-4-[4-[[(3R,5S)-4-[(1OS)-4-(2-hydroxyphenyl) 1,5,6,8,12-pentazatricyclo[8.4.0.02,7]tetradeca-2,4,6-triene-12-carbonyl]-3,5-dimethylpiperazin-1-yl]methyl]piperidin-1-yl]pyridine-2-carboxamide]	> 1000		< 100	50 to 75
CC[C@]12CNc3nnc(-c4ccccc4O)cc3N1C[C@H](Oc1ccc(CN3CCN(c4ccc(C5CCC(=O)NC5=O)cc4)CC3)cn1)C2 (stereo partly drawn) [Example 14, 3-(4-(4-((6-(((6aS,8R)-6a-ethyl-2-(2-hydroxyphenyl)-5,6,6a,7,8,9-hexahydro-pyrrolo[1′,2′:4,5]pyrazino[2,3-c]pyridazin-8-yl)oxy)pyridin-3-yl)methyl)piperazin-1-yl)phenyl)piperidine-2,6-dione]	< 100	> 75	< 100	> 75
CC[C@]12CNc3nnc(-c4ccccc4O)cc3N1C[C@H](Oc1ccc(CN3CCN(c4ccc(NC5CCC(=O)NC5=O)cc4)CC3)cn1)C2 (stereo partly drawn) [Example 10, 3-((4-(4-((6-(((6aS,8R)-6a-ethyl-2-(2-hydroxyphenyl)-5,6,6a,7,8,9-hexahydro-pyrrolo[1′,2′:4,5]pyrazino[2,3-c]pyridazin-8-yl)oxy)pyridin-3-yl)methyl)piperazin-1-yl)phenyl)amino)piperidine-2,6-dione]	< 100	> 75	< 100	> 75
CC[C@]12CNc3nnc(-c4ccccc4O)cc3N1C[C@H](Oc1ccc(CN3CCN(c4ccc(N5CCC(=O)NC5=O)cc4)CC3)cn1)C2 [Example 9, 1-(4-(4-((6-(((6aS,8R)-6a-ethyl-2-(2-hydroxyphenyl)-5,6,6a,7,8,9-hexahydro-pyrrolo[1′,2′:4,5]pyrazino[2,3-c]pyridazin-8-yl)oxy)pyridin-3-yl)methyl)piperazin-1-yl)phenyl)dihydropyrimidine-2,4(1H,3H)-dione]	< 100	50 to 75	100 to 1000	< 50
O=C1CCC(n2ncc3ccc(N4CCC(CN5C[C@@H]6[C@H](C5)[C@H]6CN5CCN6c7cc(-c8ccccc8O)nnc7NC[C@H]6C5)CC4)cc32)C(=O)N1 (stereo partly drawn) [Example 6, 3-(6-(4-(((1R,5S,6r)-6-(((S)-2-(2-hydroxyphenyl)-5,6,6a,7,9,10-hexahydro-8H-pyrazino[1′,2′:4,5]pyrazino[2,3-c]pyridazin-8-yl)methyl)-3-azabicyclo[3.1.0]hexan-3-yl)methyl)piperidin-1-yl)-1H-indazol-1-yl)piperidine-2,6-dione]	> 1000	< 50	100 to 1000	< 50
CC[C@]12CNc3nnc(-c4ccccc4O)cc3N1C[C@H](Oc1ccc(CN3CCN(c4ccc(C(=O)NC5CCC(=O)NC5=O)c(F)c4)CC3)cn1)C2 (stereo partly drawn) [Example 13, N-(2,6-dioxopiperidin-3-yl)-4-(4-((6-(((6aS,8R)-6a-ethyl-2-(2-hydroxyphenyl)-5,6,6a,7,8,9-hexahydropyrrolo[1′,2′:4,5]pyrazino[2,3-c]pyridazin-8-yl)oxy)pyridin-3-yl)methyl)piperazin-1-yl)-2-fluorobenzamide]	> 1000	< 50	100 to 1000	< 50
Cn1nc(N2CCC(=O)NC2=O)c2ccc(N3CCC(CN4C[C@@H]5[C@H](C4)[C@H]5CN4CCN5c6cc(-c7ccccc7O)nnc6NC[C@H]5C4)CC3)cc21 [Example 8, 1-[6-[4-[[(1S,5R)-6-[[(10S)-4-(2-hydroxyphenyl)-1,5,6,8,12-pentazatricyclo[8.4.0.02,7]tetradeca-2,4,6-trien-12-yl]methyl]-3-azabicyclo[3.1.0]hexan-3-yl]methyl]piperidin-1-yl]-1-methylindazol-3-yl]-1,3-diazinane-2,4-dione]	< 100	50 to 75	< 100	50 to 75
